{"source": "paper PMC8573170", "about": "(The Journal of Biological Chemistry, 2021)", "key": {"α-thrombin [1]": {"molecular_target": "T1, α-thrombin (Homo sapiens, UniProt P00734)", "experiment": "SPR, peptides passed over immobilized thrombin", "type": "binding", "details": "thrombin amine-coupled on CM5 chip; peptides 0-50 nM; single cycle; compared with biotinylated XC-43 surface", "description": "Evaluation of binding kinetics by SPR was performed using a Biacore T200 instrument. Synthetic XC-43 containing covalently linked biotin at the N-terminal amino group and the ε-amino group of Lys 1 was bound to a surface of immobilized neutravidin on a CM-5 chip. After conditioning, human α-thrombin was passed over the surface, and kinetic data were collected in single cycle mode using a running buffer of 10 mM HEPES pH 7.4, 150 mM NaCl (HBS). The data were fit to a 1:1 Langmuir binding model. Binding was also analyzed after immobilization of α-thrombin on a CM-5 chip using amine coupling methodology. XC-42 and XC-43 were passed over the surface, and data were collected in the single cycle mode using HBS as a running buffer. The data were fit to a 1:1 binding model as described above.\nFigure S2: Surface pl asmon resonanc e in the single cycle mode of (A) XC -42 or (B) XC-43 binding to thrombin immobilized on a CM5 chip surface. Exp erimental data are shown as a solid grey line while the calculated fit is shown as a dashed line (C) Th e kinetic param eters w ere estimated by fitting a 1:1 binding model. Peptide concentrations for each experiment were, 0 nM, 6.25 nM, 12.5 nM, 25 nM, 50 nM.\n(§1) (1 picture or pasted object on this page, not shown here)"}, "thrombin": {"molecular_target": "thrombin (Homo sapiens, UniProt P00734)", "experiment": "Cleavage of peptides by thrombin in solution, measured by mass spectrometry", "type": "in vitro ADME", "details": "25 μM peptide, 1 μM thrombin (25:1); 2 h at 37 °C; 25 mM Tris-HCl pH 8.0, 150 mM NaCl; ESI-MS", "description": "To detect cleavage of XC-42 and XC-43 by thrombin in solution, we incubated each peptide separately at a concentration of 25 μM in the presence of thrombin (1 μM) in 25 mM Tris-HCl pH 8.0 containing 150 mM NaCl for 2 h at 37 °C. Reactions were stopped by adjusting the pH to 2.0 with the addition of TFA. A Q Exactive plus (Thermo Fisher Scientific) mass spectrometer was used to carry out ESI-MS experiments. The instrument was operated at a resolution of 280k, spray voltage of 3.5 kV, and capillary temperature of 250 °C. Samples were desalted by C18 Zip-tip (Millipore) and dissolved in 200 μl of reconstitution buffer (50% acetonitrile, 49% water, 1% TFA). Samples were introduced using a syringe pump (Thermo Fisher Scientific) with a flow rate of 5 μl/min. Xtract was used to deconvolute the raw data."}, "α-thrombin [2]": {"molecular_target": "T1, α-thrombin", "experiment": "Kinetic assay of thrombin-catalyzed hydrolysis of S-2238 (Morrison equation)", "type": "biochemical", "parameters": "Kinetic assays were performed using human α-thrombin (Enzyme Research Laboratories); purchased Enzyme Research Laboratories", "details": "summary statement in the abstract; fast, tight-binding inhibitor; read-out: dissociation constant for thrombin (abstract)", "description": "All reactions were performed at 30 °C. Kinetic assays were performed using human α-thrombin (Enzyme Research Laboratories) and chromogenic substrate S-2238 (Diapharma) using a Thermomax micro plate reader (Molecular Devices). Reactions were performed in 100 μl of TBS buffer (10 mM Tris, 0.15 M NaCl, pH 7.4) containing 0.01% Tween-20. XC-43 (0–3.2 nM) or 0 to 15 pairs of X.cheopis salivary glands were incubated with human α-thrombin (0.2 nM) at 30 °C for 5 min followed by addition of S-2238 (50, 100, 200, 400, and 600 μM). Reactions were followed for 30 min. The inhibitory constants were determined by fitting the nonlinear regression model according to the Morrison’s equation ([43]) using the GraphPad Prism software (GraphPad Software, Inc)."}, "Wistar rats [3]": {"test_system": "Wistar rats", "experiment": "Tail bleeding assay", "type": "in vivo", "details": "rat; for increased tail bleeding vs PBS-injected animals: 30 min posttreatment, absorbance 540 nm", "description": "The tail bleeding assay was performed with 24 animals kept at 37 °C under general anesthesia with isoflurane vaporized in 100% oxygen at a dose of 5% for induction and 2% for maintenance (flow rate of 0.5 l/min). These animals were randomly distributed into four groups (n = 6 per group) and injected intraperitoneally (300 μl) with: (i) PBS; (ii) heparin (50 μg/kg); (iii) XC-43 (0.5 mg/kg); or (iv) XC-43 (1 mg/kg). After 30 min posttreatment, a medium depth incision was performed at 3 mm from the tip of the animals' tail; the tail was submerged in a test tube containing saline solution (4 ml) and maintained for 30 min. Then, samples from saline solution were appropriately diluted and the absorbance at 540 nm was determined spectrophotometrically."}, "α-thrombin [4]": {"molecular_target": "T1, α-thrombin", "experiment": "Isothermal titration calorimetry", "parameters": "Kinetic assays were performed using human α-thrombin (Enzyme Research Laboratories); purchased Enzyme Research Laboratories", "details": "using a maximum c value of 500; single binding site; read-out: KD, ITC bound", "description": "Isothermal titration calorimetric experiments were performed with a Microcal VP-ITC instrument at 30 °C. Human α-thrombin and XC-43 were dissolved in PBS, pH 7.4 at concentrations of 1 μM and 10 μM, respectively. XC-43 was added as 10-μl injections to the protein sample contained in the calorimeter cell. Calculated injection enthalpies were fit to a single-site binding model in the Microcal data evaluation software.\nFigure S3: Analysis of XC-43 binding with thrombin using isothermal titration calorimetry. XC-43 (10 µM) was added to a solution of thrombin (1 µM) in a series of 10 µl injections. Heats were record ed on a VP -IT C MicroCalorimeter and the data fitted using a singl e binding site model. The high affinity makes the magnitude […]\nassociation constant (K) must be ≥ 5 × 10 8 M −1 ( KD ≤ 2 nM ) with a single peptide binding site per thrombin […]\nas §1"}, "α-thrombin [5]": {"test_system": "α-thrombin", "experiment": "XC-43-thrombin complex assembled in 10 mM HEPES pH 7.4, crystallized in 0.2 M magnesium acetate, 9% PEG 8000 (measured pH ∼ 7)", "details": "human, room temperature"}, "α-thrombin [6]": {"test_system": "α-thrombin", "experiment": "thrombin (1 μM) in 25 mM Tris-HCl pH 8.0 containing 150 mM NaCl", "details": "human, 37 °C, up to 2 h"}, "Wistar rats [7]": {"test_system": "Wistar rats", "experiment": "Ex vivo aPTT of plasma from treated rats", "type": "in vivo", "details": "rat; heparin 50 μg/kg intraperitoneal; 2 and 12 h posttreatment", "description": "A total number of 24 animals were randomly distributed into four groups (n= 6 per group) and injected intraperitoneally (300 μl) with: (i) PBS; (ii) heparin (50 μg/kg); (iii) XC-43 (0.5 mg/kg); or (iv) XC-43 (1.0 mg/kg). Animals were anesthetized with isoflurane (5% for induction; 2% for maintenance) and blood samples were obtained at 0, 2, 12, and 24 h posttreatment in 1:10 (v/v) 3.8% trisodium citrate. The PPP was obtained by blood centrifugation (1500g for 10 min) and the aPTT evaluated using the APTT ellagic kit (Wiener Lab). Clot formation was monitored at 650 nm using a SpectraMax M3 (Molecular Devices)."}}, "note": "Entries after “also recorded” stand apart in the source; their conditions may differ."}
{"compound": "CC[C@H](C)[C@H](NC(=O)[C@@H]1CCCN1C(=O)[C@H](CCC(=O)O)NC(=O)[C@H](CCSC)NC(=O)CNC(=O)[C@H](CC(N)=O)NC(=O)CNC(=O)CNC(=O)[C@H](CCC(=O)O)NC(=O)CNC(=O)[C@H](CCCNC(=N)N)NC(=O)[C@H](CCC(N)=O)NC(=O)[C@H](Cc1ccc(O)cc1)NC(=O)[C@H](CC(C)C)NC(=O)[C@H](CCCCN)NC(=O)[C@@H]1CCCN1C(=O)[C@H](CCC(N)=O)NC(=O)[C@H](C)NC(=O)[C@@H](NC(=O)[C@H](CCC(=O)O)NC(=O)[C@H](C)NC(=O)[C@H](CCC(=O)O)NC(=O)[C@@H](NC(=O)[C@H](CCC(=O)O)NC(=O)[C@H](CS)NC(=O)[C@H](CCC(=O)O)NC(=O)[C@H](CC(=O)O)NC(=O)[C@H](CC(C)C)NC(=O)[C@H](CC(N)=O)NC(=O)[C@H](CO)NC(=O)[C@H](CCC(N)=O)NC(=O)[C@H](C)NC(=O)[C@@H](NC(=O)[C@H](CCC(=O)O)NC(=O)[C@H](C)NC(=O)[C@H](CCC(=O)O)NC(=O)[C@@H](NC(=O)[C@@H]1CCCN1C(=O)[C@@H](N)CCCCN)C(C)C)C(C)C)C(C)C)C(C)C)C(=O)N1CCC[C@H]1C(=O)N[C@@H](CCC(=O)O)C(=O)N[C@@H](CC(=O)O)C(=O)N[C@H](C(=O)N[C@@H](CC(C)C)C(=O)N[C@@H](CC(N)=O)C(=O)N[C@@H](CCC(=O)O)C(=O)N[C@@H](C)C(=O)N[C@@H](CC(C)C)C(=O)N[C@@H](CC(N)=O)C(=O)N[C@@H](C)C(=O)O)C(C)C", "note": "[XC-42]", "values": [{"measurement": "dissociation constants on immobilized thrombin, SPR (in words)", "setting": "α-thrombin [1]", "result": "elevated dissociation constants"}, {"measurement": "cleavage by thrombin in solution (in words)", "setting": "thrombin", "result": "majority of the peptide was uncleaved; also recorded: cleaved to a relatively small degree"}]}
{"compound": "CC[C@H](C)[C@H](NC(=O)[C@@H]1CCCN1C(=O)[C@H](CCC(=O)O)NC(=O)[C@H](CCSC)NC(=O)CNC(=O)[C@H](CC(N)=O)NC(=O)CNC(=O)CNC(=O)[C@H](CCC(=O)O)NC(=O)CNC(=O)[C@H](CCCNC(=N)N)NC(=O)[C@H](CCC(N)=O)NC(=O)[C@H](Cc1ccc(O)cc1)NC(=O)[C@H](CC(C)C)NC(=O)[C@H](CCCCN)NC(=O)[C@@H]1CCCN1C(=O)[C@H](CCC(N)=O)NC(=O)[C@H](C)NC(=O)[C@@H](NC(=O)[C@H](CCC(=O)O)NC(=O)[C@H](C)NC(=O)[C@H](CCC(=O)O)NC(=O)[C@@H](NC(=O)[C@@H]1CCCN1C(=O)[C@@H](N)CCCCN)C(C)C)C(C)C)C(=O)N1CCC[C@H]1C(=O)N[C@@H](CCC(=O)O)C(=O)N[C@@H](CC(=O)O)C(=O)N[C@H](C(=O)N[C@@H](CC(C)C)C(=O)N[C@@H](CC(N)=O)C(=O)N[C@@H](CCC(=O)O)C(=O)N[C@@H](C)C(=O)N[C@@H](CC(C)C)C(=O)N[C@@H](CC(N)=O)C(=O)N[C@@H](C)C(=O)O)C(C)C", "note": "[XC-43]", "values": [{"measurement": "dissociation constants on immobilized thrombin, SPR (in words)", "setting": "α-thrombin [1]", "result": "elevated dissociation constants"}, {"measurement": "Kd", "setting": "α-thrombin [2]", "result": "< 0.01", "unit": "nM"}, {"measurement": "cleavage by thrombin in solution (in words)", "setting": "thrombin", "result": "majority of the peptide was uncleaved; also recorded: largely intact; also recorded: cleaved to a relatively small degree"}, {"measurement": "cleavage fragment ion intensity relative to that of the uncleaved peptide", "setting": "thrombin", "result": "less than 15%"}, {"measurement": "increased tail bleeding vs PBS-injected animals", "setting": "Wistar rats [3]; 0.5 mg/kg intraperitoneal", "result": 3.2, "unit": "fold"}, {"measurement": "increased tail bleeding vs PBS-injected animals", "setting": "Wistar rats [3]; 1 mg/kg intraperitoneal", "result": 7.6, "unit": "fold"}, {"measurement": "increased tail bleeding vs heparin-treated animals", "setting": "Wistar rats [3]; 1 mg/kg intraperitoneal, heparin 50 μg/kg", "result": 2.3, "unit": "fold"}, {"measurement": "Kd", "setting": "α-thrombin [4]", "result": "≤ 2", "unit": "nM"}]}
{"compound": "KPVEAEVAQPKLYQRGEGGNGMEPIPEDVLNEALNA", "values": [{"measurement": "not cleaved", "setting": "α-thrombin [5]", "result": "no evidence of even partial cleavage"}]}
{"compound": "KPVEAEVAQSNLDECEVEAEVAQPKLYQRGEGGNGMEPIPEDVLNEALNA", "values": [{"measurement": "fragment found", "setting": "α-thrombin [6]", "result": "LYQRGEGGNGMEPIPEDVLNEALNA"}]}
{"compound": "heparin", "values": [{"measurement": "increase of ex vivo aPTT in relation to PBS-treated animals", "setting": "Wistar rats [7]", "result": "twofold"}]}
